Measured values reported in patent US20260042731A1, “(2,4-DICHLOROPHENOXY)ACETIC ACID ANALOGS” (CORTEVA AGRISCIENCE LLC, priority 2022, published 2026).
Like-named read-outs stand apart in the source and are kept apart here.

What was measured:
[1] = tested on: Abutilon theophrasti (ABUTH), velvetleaf; assay: Postemergence herbicide evaluation, growth of Abutilon theophrasti (ABUTH); assay type: in vivo; settings: Abutilon theophrasti, post-emergence, percent reduction in plant size relative to untreated control, read-out: AVE. ABUTH; for pest or weed control at 280 g/ha: 280 g ae/ha; for pest or weed control at 560 g/ha: 560 g ae/ha
[2] = tested on: Chenopodium album (CHEAL), common lambsquarters; assay: Postemergence herbicide evaluation, growth of Chenopodium album (CHEAL); assay type: in vivo; settings: Chenopodium album, post-emergence, percent reduction in plant size relative to untreated control, read-out: Ave. CHEAL; for pest or weed control at 280 g/ha: 280 g ae/ha; for pest or weed control at 560 g/ha: 560 g ae/ha
[3] = tested on: weeds (ABUTH, AMATA, AMBEL, CHEAL, ERICA); assay: Postemergence herbicide evaluation, overall average % weed control across ABUTH, AMATA, AMBEL, CHEAL, ERICA; assay type: in vivo; settings: post-emergence, average over the five weeds, read-out: Overall Ave % Weed Control; for pest or weed control at 280 g/ha: 280 g ae/ha; for pest or weed control at 560 g/ha: 560 g ae/ha
[4] = tested on: glyphosate resistant Conyza canadensis (L.) (ERICA), horseweed; assay: Postemergence herbicide evaluation, growth of Conyza canadensis (ERICA); assay type: in vivo; settings: Erigeron canadensis, post-emergence, percent reduction in plant size relative to untreated control, read-out: Ave. ERICA; for pest or weed control at 280 g/ha: 280 g ae/ha; for pest or weed control at 560 g/ha: 560 g ae/ha
[5] = tested on: Amaranthus rudis (AMATA), tall water hemp; assay: Postemergence herbicide evaluation, growth of Amaranthus rudis (AMATA); assay type: in vivo; settings: Amaranthus tuberculatus, post-emergence, percent reduction in plant size relative to untreated control, read-out: Ave. AMATA; for pest or weed control at 280 g/ha: 280 g ae/ha; for pest or weed control at 560 g/ha: 560 g ae/ha
[6] = tested on: Ambrosia artemisiifolia (AMBEL), common ragweed; assay: Postemergence herbicide evaluation, growth of Ambrosia artemisiifolia (AMBEL); assay type: in vivo; settings: Ambrosia artemisiifolia, post-emergence, percent reduction in plant size relative to untreated control, read-out: AVE. AMBEL; for pest or weed control at 280 g/ha: 280 g ae/ha; for pest or weed control at 560 g/ha: 560 g ae/ha
[7] = Volatility of compounds measured by thermogravimetric analysis (TGA); assay type: physicochemical

Row | SMILES | pest or weed control at 280 g/ha ([1]; 168 h, 7 DAA) [%] | pest or weed control at 560 g/ha ([1]; 168 h, 7 DAA) [%] | pest or weed control at 280 g/ha ([1]; 336 h, 14 DAA) [%] | pest or weed control at 560 g/ha ([1]; 336 h, 14 DAA) [%] | pest or weed control at 280 g/ha ([1]; 504 h, 21 DAA) [%] | pest or weed control at 560 g/ha ([1]; 504 h, 21 DAA) [%] | pest or weed control at 280 g/ha ([2]; 168 h, 7 DAA) [%] | pest or weed control at 560 g/ha ([2]; 168 h, 7 DAA) [%] | pest or weed control at 280 g/ha ([2]; 336 h, 14 DAA) [%] | pest or weed control at 560 g/ha ([2]; 336 h, 14 DAA) [%] | pest or weed control at 280 g/ha ([2]; 504 h, 21 DAA) [%] | pest or weed control at 560 g/ha ([2]; 504 h, 21 DAA) [%] | pest or weed control at 280 g/ha ([3]; 168 h, 7 DAA) [%] | pest or weed control at 560 g/ha ([3]; 168 h, 7 DAA) [%] | pest or weed control at 280 g/ha ([3]; 336 h, 14 DAA) [%] | pest or weed control at 560 g/ha ([3]; 336 h, 14 DAA) [%] | pest or weed control at 280 g/ha ([3]; 504 h, 21 DAA) [%] | pest or weed control at 560 g/ha ([3]; 504 h, 21 DAA) [%] | pest or weed control at 280 g/ha ([4]; 168 h, 7 DAA) [%] | pest or weed control at 560 g/ha ([4]; 168 h, 7 DAA) [%] | also measured
1 | Cn1c(O)c(C(=O)COc2ccc(Cl)cc2Cl)c2ccccc21 [Compound C1, 2-(2,4-Dichlorophenoxy)-1-(2-hydroxy-1-methyl-1H-indol-3-yl)ethanone] | 68 | 0 | 63 | 0 | 63 | 0 | 68 | 0 | 78 | 0 | 77 | 0 | 61 | 0 | 72 | 0 | 72 | 0 | 60 | 0 | pest or weed control at 280 g/ha ([4]; 336 h, 14 DAA): 85%; pest or weed control at 560 g/ha ([4]; 336 h, 14 DAA): 0%; pest or weed control at 280 g/ha ([4]; 504 h, 21 DAA): 90%; pest or weed control at 560 g/ha ([4]; 504 h, 21 DAA): 0%; pest or weed control at 280 g/ha ([5]; 168 h, 7 DAA): 63%; pest or weed control at 560 g/ha ([5]; 168 h, 7 DAA): 0%; pest or weed control at 280 g/ha ([5]; 336 h, 14 DAA): 70%; pest or weed control at 560 g/ha ([5]; 336 h, 14 DAA): 0%; pest or weed control at 280 g/ha ([5]; 504 h, 21 DAA): 68%; pest or weed control at 560 g/ha ([5]; 504 h, 21 DAA): 0%; pest or weed control at 280 g/ha ([6]; 168 h, 7 DAA): 48%; pest or weed control at 560 g/ha ([6]; 168 h, 7 DAA): 0%; pest or weed control at 280 g/ha ([6]; 336 h, 14 DAA): 65%; pest or weed control at 560 g/ha ([6]; 336 h, 14 DAA): 0%; pest or weed control at 280 g/ha ([6]; 504 h, 21 DAA): 65%; pest or weed control at 560 g/ha ([6]; 504 h, 21 DAA): 0%; TGA Data (rate of weight loss, volatility) [7]: 0.7 µg/min
2 | CCO/C(CC)=N\OC(=O)COc1ccc(Cl)cc1Cl [Compound A9, Ethyl N-2-(2,4-dichlorophenoxy)acetoxypropionimidate] | 80 | 80 | 80 | 96 | 89 | 95 | 70 | 65 | 83 | 68 | 88 | 75 | 72 | 75 | 82 | 85 | 85 | 89 | 70 | 70 | pest or weed control at 280 g/ha ([4]; 336 h, 14 DAA): 91%; pest or weed control at 560 g/ha ([4]; 336 h, 14 DAA): 84%; pest or weed control at 280 g/ha ([4]; 504 h, 21 DAA): 99%; pest or weed control at 560 g/ha ([4]; 504 h, 21 DAA): 97%; pest or weed control at 280 g/ha ([5]; 168 h, 7 DAA): 65%; pest or weed control at 560 g/ha ([5]; 168 h, 7 DAA): 78%; pest or weed control at 280 g/ha ([5]; 336 h, 14 DAA): 63%; pest or weed control at 560 g/ha ([5]; 336 h, 14 DAA): 85%; pest or weed control at 280 g/ha ([5]; 504 h, 21 DAA): 60%; pest or weed control at 560 g/ha ([5]; 504 h, 21 DAA): 84%; pest or weed control at 280 g/ha ([6]; 168 h, 7 DAA): 73%; pest or weed control at 560 g/ha ([6]; 168 h, 7 DAA): 83%; pest or weed control at 280 g/ha ([6]; 336 h, 14 DAA): 93%; pest or weed control at 560 g/ha ([6]; 336 h, 14 DAA): 93%; pest or weed control at 280 g/ha ([6]; 504 h, 21 DAA): 92%; pest or weed control at 560 g/ha ([6]; 504 h, 21 DAA): 96%; TGA Data (rate of weight loss, volatility) [7]: 0.5 µg/min
3 | C/C(N)=N/OC(=O)COc1ccc(Cl)cc1Cl [Compound A12, N′-(2-(2,4-Dichlorophenoxy)acetoxy)acetimidamide] | 85 | 93 | 90 | 97 | 96 | 99 | 68 | 68 | 80 | 78 | 86 | 80 | 72 | 76 | 88 | 89 | 93 | 92 | 65 | 68 | pest or weed control at 280 g/ha ([4]; 336 h, 14 DAA): 90%; pest or weed control at 560 g/ha ([4]; 336 h, 14 DAA): 91%; pest or weed control at 280 g/ha ([4]; 504 h, 21 DAA): 99%; pest or weed control at 560 g/ha ([4]; 504 h, 21 DAA): 97%; pest or weed control at 280 g/ha ([5]; 168 h, 7 DAA): 75%; pest or weed control at 560 g/ha ([5]; 168 h, 7 DAA): 78%; pest or weed control at 280 g/ha ([5]; 336 h, 14 DAA): 97%; pest or weed control at 560 g/ha ([5]; 336 h, 14 DAA): 83%; pest or weed control at 280 g/ha ([5]; 504 h, 21 DAA): 86%; pest or weed control at 560 g/ha ([5]; 504 h, 21 DAA): 88%; pest or weed control at 280 g/ha ([6]; 168 h, 7 DAA): 65%; pest or weed control at 560 g/ha ([6]; 168 h, 7 DAA): 75%; pest or weed control at 280 g/ha ([6]; 336 h, 14 DAA): 83%; pest or weed control at 560 g/ha ([6]; 336 h, 14 DAA): 96%; pest or weed control at 280 g/ha ([6]; 504 h, 21 DAA): 97%; pest or weed control at 560 g/ha ([6]; 504 h, 21 DAA): 99%; TGA Data (rate of weight loss, volatility) [7]: 5.8 µg/min
